Data set [1] can be described thus: Solubility in water. The class given is physicochemical. The text has this: There has been a limitation in the effectiveness of conventional solvents for dry-cleaning in removing water-based contaminants due to the hydrophobic property thereof. Accordingly, in order to relatively evaluate a cleaning effect on the removal of water-based contaminants, the water-containing capacity of solvents according to the present invention was compared with that of the conventional dry-cleaning solvents.

Data set [2] in a line: Drying rate of solvent impregnated in standard cotton samples at room temperature. The following applies: dried for 8 hours, room temperature (25° C.), relative humidity of 30%. The class given is physicochemical. As to the method:
Each solvent used in Comparative Examples 1 to 7 and Examples 1 to 4 was evaluated for its drying rate at room temperature which is considered an important factor in dry-cleaning. The initial weight (A) of standard cotton samples was each measured. After impregnating each solvent or composition in a certain amount into the cotton samples, the weight (B) of the cotton samples was measured. A difference between weight (B) and weight (A) was calculated to determine the weight of each of the impregnated solvents. Then, the cotton samples in which each solvent was impregnated were dried for 8 hours under conditions of room temperature (25° C.) and a relative humidity of 30%. After drying, the weight of each cotton sample was measured and converted into a percentage relative to the initial impregnation weight to obtain a drying rate for each solvent.

Read-outs that look alike come from different tables or passages of the source.

Turning to `CC1(C)OCC(CO)O1` (centres unmarked) [Example 1, Acetone Glycerol], the “Solubility (20° C.)” value in data set [1] (result in words) is listed as “soluble”. Also, in data set [2], the “Drying rate (%)” value amounted to 100%.

For the compound `CC(C)CC1(C)OCC(CO)O1` (centres unmarked) [Example 3, Glycerol-Methyl Isobuthyl Ketone Ketal], in data set [2], the “Drying rate (%)” value was determined as 85.25%.

Regarding `O` [Com. Ex. 1, Water], in data set [2], the “Drying rate (%)” value is listed as 100%.

As for `COCC(O)CO` (centres unmarked) [Com. Ex. 5, 3-Methoxy 1,2-propanol], in data set [2], the “Drying rate (%)” value turned out to be 10.53%.

As to `COCC(CO)OC` (centres unmarked) [Com. Ex. 6, 2,3-Dimethoxy-1-propanol], in data set [2], the “Drying rate (%)” value is given as 95.29%.

For the compound `C[Si]1(C)O[Si](C)(C)O[Si](C)(C)O[Si](C)(C)O[Si](C)(C)O1` [Com. Ex. 4, Decamethyl-cyclopentasiloxane], the “Solubility (20° C.)” value in data set [1] (result in words) is listed as “Insol-”. The “Drying rate (%)” value in data set [2] came out at 100%.

Consider `CCCC1OCC(CO)O1` (centres unmarked) [Example 4, Glycerol-Butylaldehyde Acetal], for which the “Solubility (20° C.)” value in data set [1] (result in words) was “soluble”. Further, the “Drying rate (%)” value in data set [2] is 90.3%.

Consider `CCC1(C)OCC(CO)O1` (centres unmarked) [Example 2, Glycerol-Methyl Ethyl Ketone Ketal], for which the “Solubility (20° C.)” value in data set [1] (result in words) is on record as “soluble”. In data set [2], the “Drying rate (%)” value amounted to 100%.

`ClC(Cl)=C(Cl)Cl` [Com. Ex. 2, Perchloroethylene]: in data set [1], the “Solubility (20° C.)” value came to 0.015 g/ g/100 mL. In data set [2], the “Drying rate (%)” value amounted to 100%.

Source of the values: patent US8882853B2, “Environmentally-friendly solvent for washing and dry-cleaning, and laundry composition including the same” (LG Household & Health Care Ltd., priority 2011, dated 2014).
